Results taken from PubChem BioAssay AID2060885 (Molecular Pharmacology Branch, DTP, NCI, 2025).
pIC50: −log10 of the molar value.

Tested on: NCI-H23 complex spheroids with HUVEC/MSC, viability
Test: Anticancer human tumor NCI-H23 cell line growth inhibition [RAS];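 also: spheroids exposed to compound for 7 days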;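 as to viability, T/C: 100% = DMSO vehicle control viability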
Settings: for pIC50: curve of first compound; for viability, T/C: stronger effect = lower value
Summary of the method: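 Agents were tested in combination matrices in half-log decrements from a top concentration at or near clinical Cmax (10 microM if undetermined). Targets were multi-cell spheroids of tumour lines plus HUVEC and MSC stromal cells.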

[1] = second compound 0.00316 µM, first compound 0.0316 µM
[2] = second compound 0.00316 µM, first compound 0.1 µM
[3] = second compound 0.00316 µM, first compound 0.316 µM
[4] = second compound 0.00316 µM, first compound 1 µM
[5] = second compound 0.00316 µM, first compound 3.16 µM
[6] = second compound 0.00316 µM, first compound 10 µM
[7] = second compound 0.01 µM, first compound 0.0316 µM
[8] = second compound 0.01 µM, first compound 0.1 µM
[9] = second compound 0.01 µM, first compound 0.316 µM
[10] = second compound 0.01 µM, first compound 1 µM
[11] = second compound 0.01 µM, first compound 3.16 µM
[12] = second compound 0.01 µM, first compound 10 µM
[13] = second compound 0.0316 µM, first compound 0.0316 µM
[14] = second compound 0.0316 µM, first compound 0.1 µM
[15] = second compound 0.0316 µM, first compound 0.316 µM
[16] = second compound 0.0316 µM, first compound 1 µM
[17] = second compound 0.0316 µM, first compound 3.16 µM
[18] = second compound 0.0316 µM, first compound 10 µM
[19] = second compound 0.1 µM, first compound 0.0316 µM
[20] = second compound 0.1 µM, first compound 0.1 µM
[21] = second compound 0.1 µM, first compound 0.316 µM
[22] = second compound 0.1 µM, first compound 1 µM
[23] = second compound 0.1 µM, first compound 3.16 µM
[24] = second compound 0.1 µM, first compound 10 µM
[25] = second compound 0.316 µM, first compound 0.0316 µM
[26] = second compound 0.316 µM, first compound 0.1 µM
[27] = second compound 0.316 µM, first compound 0.316 µM
[28] = second compound 0.316 µM, first compound 1 µM
[29] = second compound 0.316 µM, first compound 3.16 µM
[30] = second compound 0.316 µM, first compound 10 µM
[31] = second compound 1 µM, first compound 0.0316 µM
[32] = second compound 1 µM, first compound 0.1 µM
[33] = second compound 1 µM, first compound 0.316 µM
[34] = second compound 1 µM, first compound 1 µM
[35] = second compound 1 µM, first compound 3.16 µM
[36] = second compound 1 µM, first compound 10 µM

For `CC1(O)CCCC1n1c(=O)c(C(F)F)cc2cnc(NC3CCN(S(C)(=O)=O)CC3)nc21` (stereo unspecified) + C=CC(=O)N1CCN(c2nc(OCC3CCCN3C)nc3c(F)c(-c4nc(N)cc(C)c4C(F)(F)F)c(Cl)cc23)C(C)C1, the pIC50 (second compound 0.00316 µM) was greater than 7.50, the pIC50 (second compound 0.01 µM) was greater than 7.50 and the pIC50 (second compound 0.0316 µM) was greater than 7.50. The pIC50 (second compound 0.1 µM) was greater than 7.50, the pIC50 (second compound 0.316 µM) was greater than 7.50 and the pIC50 (second compound 1 µM) was greater than 7.50. It also gave a viability, T/C [1] of 46.8%, a viability, T/C [2] of 41.8% and a viability, T/C [3] of 30.8%. For the same compound, the viability, T/C [4] was 29.7%, the viability, T/C [5] was 28.1% and the viability, T/C [6] was 6.28%. It also gave a viability, T/C [7] of 44.6%, a viability, T/C [8] of 32.1% and a viability, T/C [9] of 24.9%. For the same compound, the viability, T/C [10] was 27.3%, the viability, T/C [11] was 25.9% and the viability, T/C [12] was 4.38%. It also gave a viability, T/C [13] of 36.1%, a viability, T/C [14] of 26.5% and a viability, T/C [15] of 23.1%. For the same compound, the viability, T/C [16] was 25.3%, the viability, T/C [17] was 26.5% and the viability, T/C [18] was 3.8%. The viability, T/C [19] was 34.6%, the viability, T/C [20] was 28.7% and the viability, T/C [21] was 22.1%. It also gave a viability, T/C [22] of 22.6%, a viability, T/C [23] of 23.6% and a viability, T/C [24] of 4.58%. For the same compound, the viability, T/C [25] was 31.2%, the viability, T/C [26] was 23.1% and the viability, T/C [27] was 22.4%. The viability, T/C [28] was 20.3%, the viability, T/C [29] was 27.6% and the viability, T/C [30] was 3.96%. It also gave a viability, T/C [31] of 27.1%, a viability, T/C [32] of 25.9% and a viability, T/C [33] of 21%. For the same compound, the viability, T/C [34] was 22%, the viability, T/C [35] was 23.5% and the viability, T/C [36] was 2.26%.

`CCC(CC)c1cc(NC2CCC(N)C2)n2nccc2n1` (stereo unspecified) + C=CC(=O)N1CCN(c2nc(OCC3CCCN3C)nc3c(F)c(-c4nc(N)cc(C)c4C(F)(F)F)c(Cl)cc23)C(C)C1 was tested, and the pIC50 (second compound 0.00316 µM) was 6.00, the pIC50 (second compound 0.01 µM) was 6.25 and the pIC50 (second compound 0.0316 µM) was greater than 7.50. It also gave a pIC50 (second compound 0.1 µM) greater than 7.50, a pIC50 (second compound 0.316 µM) greater than 7.50 and a pIC50 (second compound 1 µM) greater than 7.50. The viability, T/C [1] was 64.8%, the viability, T/C [2] was 75.2% and the viability, T/C [3] was 57.1%. It also gave a viability, T/C [4] of 51.4%, a viability, T/C [5] of 5.05% and a viability, T/C [6] of 0.45%. The viability, T/C [7] was 52.7%, the viability, T/C [8] was 62.7% and the viability, T/C [9] was 55.2%. It also gave a viability, T/C [10] of 43.2%, a viability, T/C [11] of 4.13% and a viability, T/C [12] of 0.6%. It also gave a viability, T/C [13] of 44.7%, a viability, T/C [14] of 47.1% and a viability, T/C [15] of 42.9%. It also gave a viability, T/C [16] of 36.5%, a viability, T/C [17] of 3.39% and a viability, T/C [18] of 0.5%. It also gave a viability, T/C [19] of 39.3%, a viability, T/C [20] of 50.3% and a viability, T/C [21] of 38.7%. For the same compound, the viability, T/C [22] was 36.5%, the viability, T/C [23] was 2.7% and the viability, T/C [24] was 0.48%. The viability, T/C [25] was 36.2%, the viability, T/C [26] was 37.8% and the viability, T/C [27] was 39.9%. For the same compound, the viability, T/C [28] was 36.7%, the viability, T/C [29] was 4.1% and the viability, T/C [30] was 0.41%. For the same compound, the viability, T/C [31] was 34.6%, the viability, T/C [32] was 42.8% and the viability, T/C [33] was 41.1%. For the same compound, the viability, T/C [34] was 38.5%, the viability, T/C [35] was 4.68% and the viability, T/C [36] was 0.53%.

With `CCN1CCN(Cc2ccc(Nc3ncc(F)c(-c4cc(F)c5nc(C)n(C(C)C)c5c4)n3)nc2)CC1` + C=CC(=O)N1CCN(c2nc(OCC3CCCN3C)nc3c(F)c(-c4nc(N)cc(C)c4C(F)(F)F)c(Cl)cc23)C(C)C1 the pIC50 (second compound 0.00316 µM) was 7.82, the pIC50 (second compound 0.01 µM) was 8.45 and the pIC50 (second compound 0.0316 µM) was greater than 8.50. For the same compound, the pIC50 (second compound 0.1 µM) was greater than 8.50, the pIC50 (second compound 0.316 µM) was greater than 8.50 and the pIC50 (second compound 1 µM) was greater than 8.50. The viability, T/C (second compound 0.00316 µM, first compound 0.00316 µM) was 55.6%, the viability, T/C (second compound 0.00316 µM, first compound 0.01 µM) was 58.2% and the viability, T/C [1] was 38.2%. For the same compound, the viability, T/C [2] was 26.9%, the viability, T/C [3] was 26.1% and the viability, T/C [4] was 23.9%. The viability, T/C (second compound 0.01 µM, first compound 0.00316 µM) was 49.9%, the viability, T/C (second compound 0.01 µM, first compound 0.01 µM) was 46.7% and the viability, T/C [7] was 30.1%. For the same compound, the viability, T/C [8] was 23.6%, the viability, T/C [9] was 17.4% and the viability, T/C [10] was 18.6%. The viability, T/C (second compound 0.0316 µM, first compound 0.00316 µM) was 44.4%, the viability, T/C (second compound 0.0316 µM, first compound 0.01 µM) was 37.3% and the viability, T/C [13] was 24.1%. It also gave a viability, T/C [14] of 21.8%, a viability, T/C [15] of 17.2% and a viability, T/C [16] of 20.1%. The viability, T/C (second compound 0.1 µM, first compound 0.00316 µM) was 36.4%, the viability, T/C (second compound 0.1 µM, first compound 0.01 µM) was 29.3% and the viability, T/C [19] was 23.2%. It also gave a viability, T/C [20] of 19.4%, a viability, T/C [21] of 19.4% and a viability, T/C [22] of 18.3%. The viability, T/C (second compound 0.316 µM, first compound 0.00316 µM) was 34.3%, the viability, T/C (second compound 0.316 µM, first compound 0.01 µM) was 31.7% and the viability, T/C [25] was 21.9%. For the same compound, the viability, T/C [26] was 20.5%, the viability, T/C [27] was 16.6% and the viability, T/C [28] was 17.2%. For the same compound, the viability, T/C (second compound 1 µM, first compound 0.00316 µM) was 28.7%, the viability, T/C (second compound 1 µM, first compound 0.01 µM) was 33.8% and the viability, T/C [31] was 26.2%. For the same compound, the viability, T/C [32] was 20.1%, the viability, T/C [33] was 17.8% and the viability, T/C [34] was 17.1%.
